Test results reported in patent US9751896B1, “Asymmetric 7-N isatin dimer Schiff base compounds with antitumor activities and a method of preparing the same” (SHAANXI UNIVERSITY OF SCIENCE AND TECHNOLOGY, priority 2016, dated 2017).

Columns and labels:
[1] = test system: human hepatoma cells (HepG2); assay: Tumor cell proliferation inhibition test (MTT), HepG2; type: cell-based; settings: 48 hours treatment, read-out: Half Inhibitory Concentration IC50 HepG2
Method: (§1) The compounds of the present invention were subjected to tumor cell proliferation inhibition test, and conventional MTT method was used.
(§2) Cell lines: human hepatoma cells (HepG2), human lung cancer cells (A-549), human gastric cancer cells (SGC-7901). The culture medium was DMEM+15% NBS+double antibody.
(§3) Sample solution preparation: after dissolving with DMSO (Merck), PBS (−) was added to obtain 100 μmol/L solution or homogeneous suspension. The solution was diluted with PBS (−) in DMSO to a final concentration of 0.1, 1, 10, 20, 40, 60, 80, 100 μmol/L.
(§4) Antitumor drug cytarabine (Ara-C) was used as control solution, prepared under the same condition.
(§5) Cell culture: adherent growth Tumor cells were cultured in 1640 medium containing 10% inactivated neonatal bovine serum and penicillin, streptomycin (1 million U/L), placed in carbon dioxide incubator at 37° C., 5% CO2, and saturated humidity. Cells were treated serially passaged 2-3 times. The first culture was washed with PBS 2 times, and digested with trypsin. Fresh culture medium was added evenly, cells were adjusted to a appropriate concentration and transferred into a new culture flask. Cell in an exponential phase were chosen for the tests.
(§6) MTT Assay for Cell Viability and IC50 Determination:
(§7) Experimental Principle: Living cells mitochondria in the dehydrogenase can reduce yellow MTT to water-insoluble blue-violet product MT (MTT formazan), deposited in the cells. The amount of production is proportional to the number of living cells. […] DMSO can dissolve blue violet crystals, and the color depth is proportional to the amount contained, so the absorbance measured by the microplate reader can reflect the cell viability.
(§8) Methods: The exponential phase cells were digested and counted and seeded in 96-well plates at a density of 2×10^4/mL at 100 μl per well. After 24 hours of incubation, the cells to be tested were treated with 0.1, 1, 10, 20, 40, 60, 80, 100 μmol/L of the compounds. Each experimental group had 5 wells in each concentration, and the culture medium containing 0.4% DMSO was used as control. After 48 hours, the supernatant was discarded, and 100 μl of MTT ((2-(4,5-dimethyl-2-thiazolyl)-3,5-diphenyl-2H-[…]) (1 mg/mL) was added to each well. After another 4 hours, the supernatant was discarded, and 100 μl of DMSO was added to each well. After mixing, the absorbance was measured at 570 nm using a microplate reader. An IC50 calculation software was used to determine the half inhibitory concentration (IC50).

[2] = test system: human gastric cancer cells (SGC-7901); assay: Tumor cell proliferation inhibition test (MTT), SGC-7901; type: cell-based; settings: SGC-7901 cells, 48 hours treatment, read-out: Half Inhibitory Concentration IC50 SGC-7901
Method: as §1, §2, §3, §4, §5, §6, §7, §8

[3] = test system: human lung cancer cells (A-549); assay: Tumor cell proliferation inhibition test (MTT), A-549; type: cell-based; settings: A549 cells, 48 hours treatment, read-out: Half Inhibitory Concentration IC50 A549
Method: as §1, §2, §3, §4, §5, §6, §7, §8

SMILES	IC50 [1] [µM]	IC50 [2] [µM]	IC50 [3] [µM]	melting point [°C]
Nc1ccn([C@@H]2O[C@H](CO)[C@@H](O)[C@@H]2O)c(=O)n1 [Ara-C, cytarabine, reference compound]	18.3 ± 0.28	18.2 ± 0.39	14.9 ± 0.64	
CN1C(=O)/C(=N\N=C2/C(=O)N(Cc3ccccc3)c3ncccc32)c2cccnc21 [Compound 4]	> 100	> 100	85.8 ± 2.96	214.3

Results, then the compound that gave them:

IC50 [1] [µM]	IC50 [2] [µM]	IC50 [3] [µM]	melting point [°C]	SMILES
> 100	42.3 ± 1.89	55.8 ± 2.67	174.5	Cc1cnc2c(c1)/C(=N/N=C1\C(=O)Nc3ncc(Cl)cc31)C(=O)N2 [Compound 1]
28.7 ± 0.4	46.9 ± 0.85		195.6	CCN1C(=O)/C(=N\N=C2/C(=O)N(C)c3ncccc32)c2cccnc21 [Compound 5]
> 100	> 100	> 100	191.9	CCN1C(=O)/C(=N\N=C2/C(=O)N(C(C)C)c3ncccc32)c2cccnc21 [Compound 6]
98.6 ± 3.23	> 100	> 100	182.5	CC(C)N1C(=O)/C(=N\N=C2/C(=O)N(C)c3ncccc32)c2cccnc21 [Compound 7]
